The series in a line: RP, Thermo Scientific Acclaim RSLC 120 C18, 100 × 2.1 mm, 2.2 µm, 30 °C, 0.2 mL/min, estimated dead time 1.1 min; A: 90% water + 10% methanol + 0.01% formic acid + 5 mM ammonium formate, pH 3.61; B: methanol + 0.01% formic acid + 5 mM ammonium formate, pH 3.61; gradient (min/%B) 0/1 1/1 2/39 13/99.9 15/99.9 15.1/1 20.1/1. Conditions: stereoisomer not certain.
For the molecule `CN1C2CCCC1CC(NC(=O)c1nn(C)c3ccccc13)C2` (configuration not stated) [Granisetron], the LC retention time was 4.99 min.

As for `COC1=CC(=O)CC(C)C12Oc1c(Cl)c(OC)cc(OC)c1C2=O` (configuration not stated) [Griseofulvin], the LC retention time was 8.05 min.

For the molecule `COc1ccccc1OCC(O)CO` (configuration not stated) [Guaifenesin], the LC retention time is 5.11 min.

`NC(N)=NN=Cc1c(Cl)cccc1Cl` [Guanabenz]: the LC retention time was 5.61 min.

Turning to `NC(N)=NCC1COc2ccccc2O1` (configuration not stated) [Guanoxan], the LC retention time was 4.57 min.

`CNC(C)Cc1ccc(O)c(O)c1` (configuration not stated) [HHMA]: the LC retention time was 2.59 min.

For `NC(N)=NC(=O)c1nc(Cl)c(N2CCCCCC2)nc1N` [HMA], the LC retention time is 3.23 min.

Turning to `CNC(C)Cc1ccc(O)c(OC)c1` (configuration not stated) [HMMA], the LC retention time is 3.19 min.

Turning to `CCCCCn1cc(C(=O)CC(C)(C)C(C)(C)O)c2ccccc21` [HTMPIPO-4], the LC retention time is 11.6 min.

As for `CCCCCCC(C)(C)c1cc(O)c2c(c1)OC(C)(C)C1CC=C(CO)CC21` (configuration not stated) [HU-210], the LC retention time is 13.5 min.

On to `CC1(C)OC2CC3C4CCC5=CC(=O)CCC5(C)C4(F)C(O)CC3(C)C2(C(=O)CCl)O1` (configuration not stated) [Halcinonide], for which the LC retention time was 10.8 min.

As to `CC(C)(COCc1cccc(Oc2ccccc2)c1)c1ccc(OC(F)(F)Br)cc1` [Halfenprox], the LC retention time is 14.3 min.

Regarding `CC(C)(C)N(NC(=O)c1ccc(Cl)cc1)C(=O)c1ccccc1` [Halofenozide], the LC retention time is 9.25 min.

On to `O=C(CC1NCCCC1O)Cn1cnc2cc(Br)c(Cl)cc2c1=O` (configuration not stated) [Halofuginone], for which the LC retention time is 6.76 min.

On to `O=C(CCCN1CCC(O)(c2ccc(Cl)cc2)CC1)c1ccc(F)cc1` [Haloperidol], for which the LC retention time was 7.18 min.

For `CCOCCOC(=O)C(C)Oc1ccc(Oc2ncc(C(F)(F)F)cc2Cl)cc1` (configuration not stated) [Haloxyfop ethoxyethyl ester], the LC retention time was 12.2 min.

As for `COc1ccc2c3c([nH]c2c1)C(C)=NCC3` [Harmaline], the LC retention time was 5.06 min.

`COc1ccc2c(c1)[nH]c1c(C)nccc12` [Harmine]: the LC retention time is 5.34 min.

As to `CC1(OC(=O)C=Cc2ccccc2)CC(O)C2(O)C=COC(OC3OC(CO)C(O)C(O)C3O)C12` (configuration not stated) [Harpagoside], the LC retention time is 8.25 min.

`COC(C)C(O)(C(=O)OCC1=CC[N+]2([O-])CCC(O)C12)C(C)C` (configuration not stated) [Heliotrine-N-oxide]: the LC retention time is 3.49 min.

In the case of `COC(C)C(O)(C(=O)OCC1=CCN2CCC(O)C12)C(C)C` (configuration not stated) [Heliotrine], the LC retention time is 4.27 min.

With `COP(=O)(OC)OC1=C(Cl)C2CC=CC12` (configuration not stated) [Heptenophos], the LC retention time is 8.49 min.

As to `CC(=O)Oc1ccc2c3c1OC1C(OC(C)=O)C=CC4C(C2)N(C)CCC341` (configuration not stated) [Heroin], the LC retention time is 4.63 min.

As for `CCCCC(O)(Cn1cncn1)c1ccc(Cl)cc1Cl` (configuration not stated) [Hexaconazole], the LC retention time is 11.2 min.

`CCCCCCCCCCCCCCCC[N+](C)(C)C` [Hexadecyltrimethylammonium]: the LC retention time was 12.9 min.

Regarding `O=C(NC(=O)c1c(F)cccc1F)Nc1cc(Cl)c(OC(F)(F)C(F)F)c(Cl)c1` [Hexaflumuron], the LC retention time was 11.8 min.

In the case of `CN(C)c1nc(=O)n(C2CCCCC2)c(=O)n1C` [Hexazinone], the LC retention time is 7.09 min.

Regarding `COc1cc(C(=O)OCCCN(C)CCN(C)CCCOC(=O)c2cc(OC)c(OC)c(OC)c2)cc(OC)c1OC` [Hexobendine], the LC retention time was 7.54 min.

`CC1C(c2ccc(Cl)cc2)SC(=O)N1C(=O)NC1CCCCC1` (configuration not stated) [Hexythiazox]: the LC retention time was 12.6 min.

Regarding `c1ccc(CN(CCN2CCCC2)c2ccccc2)cc1` [Histapyrrodine], the LC retention time is 7.19 min.

Turning to `CN1C2CCC1CC(OC(=O)C(O)c1ccccc1)C2` (configuration not stated) [Homatropine], the LC retention time is 3.73 min.

`CCCc1nn(C)c2c(=O)[nH]c(-c3cc(S(=O)(=O)N4CCN(CC)CC4)ccc3OCC)nc12` [HomoSildenafil]: the LC retention time is 7.84 min.

Take `CN(C)CCc1ccc(O)cc1` [Hordenine]: the LC retention time was 2.28 min.

Take `NS(=O)(=O)c1cc2c(cc1Cl)NCNS2(=O)=O` [Hydrochlorothiazide (NH4)]: the LC retention time was 3.24 min.

Consider `COc1ccc2c3c1OC1C(=O)CCC4C(C2)N(C)CCC314` (configuration not stated) [Hydrocodone], for which the LC retention time is 3.69 min.

`CC(=O)OCC(=O)C1(O)CCC2C3CCC4=CC(=O)CCC4(C)C3C(O)CC21C` (configuration not stated) [Hydrocortisone 21-acetate]: the LC retention time is 8.8 min.

Regarding `CN1CCC23c4c5ccc(O)c4OC2C(=O)CCC3C1C5` (configuration not stated) [Hydromorphone], the LC retention time is 2.91 min.

As for `OCCOCCN1CCN(C(c2ccccc2)c2ccc(Cl)cc2)CC1` (configuration not stated) [Hydroxyzine], the LC retention time is 8.28 min.

As to `CC(C(=O)O)c1ccc(CC(C)(C)O)cc1` (configuration not stated) [Ibuprofen- 2-Hydroxy], the LC retention time is 7.08 min.

Consider `CC(Cc1ccc(C(C)C(=O)O)cc1)C(=O)O` (configuration not stated) [Ibuprofen-Carboxy], for which the LC retention time is 6.99 min.

Take `O=P1(NCCCl)OCCCN1CCCl` (configuration not stated) [Ifosfamid]: the LC retention time is 5.89 min.

On to `Cc1ccc(NC(=O)c2ccc(CN3CCN(C)CC3)cc2)cc1Nc1nccc(-c2cccnc2)n1` [Imatinib], for which the LC retention time is 6.6 min.

With `C=CCOC(Cn1ccnc1)c1ccc(Cl)cc1Cl` (configuration not stated) [Imazalil], the LC retention time was 9.09 min.

As for `COC(=O)c1ccc(C)cc1C1=NC(C)(C(C)C)C(=O)N1` (configuration not stated) [Imazamethabenz-methyl], the LC retention time was 7.16 min.

With `COCc1cnc(C2=NC(C)(C(C)C)C(=O)N2)c(C(=O)O)c1` (configuration not stated) [Imazamox], the LC retention time was 4.63 min.

For the molecule `CC(C)C1(C)N=C(c2ncccc2C(=O)O)NC1=O` (configuration not stated) [Imazapyr], the LC retention time was 4.1 min.

Regarding `CC(C)C1(C)N=C(c2nc3ccccc3cc2C(=O)O)NC1=O` (configuration not stated) [Imazaquin], the LC retention time is 6.1 min.

With `CCc1cnc(C2=NC(C)(C(C)C)C(=O)N2)c(C(=O)O)c1` (configuration not stated) [Imazethapyr], the LC retention time was 5.6 min.

As to `COc1cc(OC)nc(NC(=O)NS(=O)(=O)c2c(Cl)nc3ccccn23)n1` [Imazosulfuron], the LC retention time was 8.78 min.

With `Clc1ccc(CSC(Cn2cncn2)=Nc2ccc(Cl)cc2Cl)cc1` [Imibenconazole], the LC retention time was 12.4 min.

Turning to `NC1=NCCN1Cc1ccc(Cl)nc1` [Imidacloprid-guanidine], the LC retention time was 11 min.

For `O=C1NCCN1Cc1ccc(Cl)nc1` [Imidacloprid-urea], the LC retention time is 4.71 min.

Consider `O=[N+]([O-])/N=C1\NCCN1Cc1ccc(Cl)nc1` [Imidacloprid], for which the LC retention time was 4.76 min.

Regarding `CN1CCN(C)C1=O` [Imidazolidinon- 1-3-Dimethyl-2-], the LC retention time is 3.53 min.

For the molecule `O=C(Nc1cccc(C2=NCCN2)c1)Nc1cccc(C2=NCCN2)c1` [Imidocarb], the LC retention time was 3.78 min.

With `C1=Cc2ccccc2Nc2ccccc21` [Iminostilbene], the LC retention time was 10.1 min.

In the case of `CN(C)CCCN1c2ccccc2CCc2ccccc21` [Imipramine], the LC retention time is 8.08 min.

Source of the values: the RepoRT retention time repository (doi:10.1021/acs.analchem.2c02893).
